Key:
[1] = Case study two: HIV positive patient, IPA orally; assay type: in vivo, human
Procedure: In another case study, […], a homosexual person, was diagnosed HIV positive in June, 1986. […] was also diagnosed as having hepatitis at that time. Beginning on May 7, 1990, IPA was administered orally to […] On May 7, 1990, […] was experiencing (1) weight loss, (2) night sweats, (3) thrush, (4) fungal infections, (5) pneumonia, (6) diarrhea, and (7) hairy leukoplakia.
Prior to treatment with IPA, V.T. had experienced diarrhea and night sweats for the previous six weeks. […] […] […] As of July 26, 1990, V.T.'s helper/suppressor ration was 0.93.

[2] = Case study: AIDS patient with hairy leukoplakia, IPA oral fluid dose or mouth wash; assay type: in vivo, human
From the text: When the indication reappeared, following a period of time (several days), the administration of the compound gave further relief.

PBL = experiment: Growth of PBL following cocultivation of patient's lymphocytes with PHA-PBL; assay type: cell-based, human; settings: 30 u.M or lower; up to 10 days in culture
T. cruzi = T. cruzi intracellular amastigote (AM) in-vitro screen; assay type: cell-based
Procedure: Dividing populations can be cultivated in muscle cells, fibroblasts and macrophages, following infection with trypomastigotes. After the initial infection, there is normally a period of 4-5 days during which the amastigotes divide before transforming, via the epimastigote stage, back to trypomastigotes which escape from the cell. Drug activity is measured during this 4-5 day period. A dividing host cell population, low infection rate, and the presence of trypomastigotes in the overlay can complicate the interpretation of results.
Intracellular amastigote models can use a range of muscle (skeletal and cardiac) and fibroblast (e.g. HeLa, HePa) cell lines, macrophages, and chick embryo cells. […] To overcome the problems of overgrowth of the monolayer and a low percentage of infected cells, often associated with the use of cell lines, irradiated rat L6 myoblasts are used.

[3] = Case study one: AIDS patient treated with IPA; assay type: in vivo, human; settings: IPA from February 1989
Procedure: A case study of an AIDS patient one, was conducted. Patient one began treatment with IPA in February 1989, while in a nearly moribund condition, suffering from depression, exhaustion, bronchial infection, severe diarrhoea, severe weight loss (weight in February was 98 lbs.), complete loss of appetite and spiked fever. […] By March 21, 1989, patient one stated that they felt cured and abruptly (unilaterally) stopped taking IPA, resulting in dramatic deterioration of their condition. In May, 1989, patient one resumed IPA therapy, and experienced dramatic recovery. At the end of May, 1989, patient one again stopped taking IPA, and their condition again deteriorated. Again IPA treatment was restarted, and patient one's condition improved. In early June, 1989, patient one again stopped IPA therapy and died several weeks later.
The study concluded that patient one would have apparently enjoyed appreciable therapeutic benefits from IPA if they had conscientiously and continuously received IPA medication.

HIV-I = experiment: Experiment la(a): macrophage cells, HIV-I, p24 antigen capture radio-immunoassay; assay type: cell-based; settings: Human immunodeficiency virus 1, Monocyte; Monocytes; HIV-1; as read from Figure 15
Epstern-Barr Virus (EBV) = experiment: P3HR1 cells, EBV, immunofluorescence; assay type: cell-based; settings: P3HR1 cells in-vitro
Procedure: Experiments were carried out using concentrated P3HR1 […]. […] Infection of Raji cells by infectious EBV induces early antigens (EA) in the cells in proportion to the titer of infectious virus. EA was detected using a monoclonal antibody.
The assay was set up with Raji cells exposed for 2 hours to serial 10 fold dilutions of the P3HR1 virus. Excess virus was separated by centrifugation and removed. Aliquots of cells infected at each dilution were distributed into 12 well trays (0.5 ml/well), and 0.5 ml of medium containing twice the desired final medium concentration was added to each well.
At 24 and 72 hours, aliquots of each well were washed, added to Teflon® outlined wells on a glass slide, air dried to attach then to the glass, and then fixed with acetone-methanol (50:50). Standard immunofluorescence procedures were followed to quantify the percent of cells containing virus at each time, virus dilution and drug concentration.

HIV-1 = HIV-1 production from patients' lymphocytes cocultured with PHA-stimulated normal PBL, p24 antigen capture; assay type: cell-based; settings: 3.75 µM or higher; Figure 14
Procedure: HIV-1 production from an AIDS patients' lymphocytes was carried out as described previously. Briefly, 10x10^6 patients' lymphocytes were cocultured with 5x10^6 PHA-stimulated normal PBL in RPMI 1640 medium containing 20% FBS, 5% interleukin 2 (Cellular Products, Buffalo, NY) and various concentrations of IPA. The culture was continued for 4 weeks. The culture was fed twice a week with 2-3x10^6 PHA-stimulated normal PBL. Culture medium was withdrawn twice a week and tested for the presence of HIV by the antigem capture test. Culture medium was replaced with new medium with or without drug at 3-4 days intervals.
A study of IPA inhibition of HIV-1 production from lymphocytes of a HIV-1 seropositive patient was carried out. For this purpose, lymphocytes from an AIDS patient and an asymtomatic patient were cocultured with PHA stimulated PBL in the presence or absence of IPA. Results shown in Figure 14 indicate that IPA inhibited HIV-1 production in a dose dependent manner. […] In contrast, HIV-1 was detected in untreated cultures as early as 7 days following cocultivation.

L major/L mexicana = experiment: Leishmania promastigote (PRO) in-vitro screen; assay type: cell-based; settings: Lm.
From the text: (§1) Following initial infection, the amastigote is the only form present in the mammalian host, surviving and dividing in various macrophage populations. Differences between the promastigote and amastigote in form and habitat are not matched by known biochemical dissimilarities. However, the drug susceptibility of the cultured promastigote, used in many early chemotherapy screens, contrasts markedly with that of the amastigote (see Table 1, below), most importantly to the clinically used pentavalent antimonials - sodium stibogluconate (Pentostam) and meglumine antimoniate (Glucantime).
(§2) Amastigotes of Leishmania can be cultivated in a wide range of mammalian cells, some of which may be used in in-vitro screens. These include (1) a Sticker dog sarcoma (fibroblast) cell line, (2) transformed rodent macrophage cell lines, (3) primary isolated mouse peritoneal macrophages (MP mo), and (4) human monocyte-derived macrophages (HM mo). The methods are similar for all models. Amastigote or promastigote infected cells are maintained in a medium containing the drug for 4-7 days, at 37 C for L. donovani and 33-35 C for L. major and L. mexicana. Drug activity is then assessed by counting (I) the number of infected host cells and/or (II) the number of amastigotes/100 host cells.
(§3) In-vitro and in-vivo models were used to test activities of a selection of many compounds. Those activities are summarized in Tables 1-3, showing variation between systems and species. Activities measured in the MP mo and HM mo models have shown the best correlation with results obtained in hamster and mouse models.

L donovani = experiment: Leishmania promastigote (PRO) in-vitro screen; assay type: cell-based; settings: Ld.
From the text: as §1, §2, §3

With `CC(C)=CCNc1ncnc2c1ncn2[C@@H]1O[C@H](CO)[C@@H](O)[C@H]1O` [IPA, N^6-(Δ^2-isopentenyl) adenosine] the toxic side effects [1] was “no permanent toxic side effects”, the weight stabilized at [1] was 133 lbs and the hairy leukoplakia ([1]; IPA orally) was “complete remission”. For the same compound, the helper/suppressor ratio ([1]; July 26, 1990) was 0.93, the weight ([1]; June 11, 1990, 119 lbs on May 7, 1990 (start of IPA)) was 132 lbs and the helper/suppressor ratio ([1]; June 21, 1990, 0.53 on May 7, 1990) was 0.65. The T4 count ([1]; June 21, 1990, 207 on May 7, 1990) was 330, the “time in which diarrhea and night sweats cleared” value ([1]; after the beginning of the treatment, symptoms for the previous six weeks) was no more than 48 h and the weight gain ([1]; over the first month of treatment) was “about 0.5 lbs per day”. The “relief of hairy leukoplakia” value [2] was “complete relief”, the “time to relief of the indication” value [2] was “within seven days” and the “cytotoxic effect on the growth of viable PHA stimulated PBL” value (PBL) was “did not have any significant cytotoxic effect”. The “activity, intracellular AM” value (T. cruzi; T. cruzi strain Sonya) was “++(Y,Sonya)”, the “activity, intracellular AM” value (T. cruzi; T. cruzi strain Y) was “++(Y,Sonya)” and the “T and B lymphocyte competence” value [3] was “major rapid recovery”. The IC50 (HIV-I) was 6 µM, the IC90 (HIV-I) was 10 µM and the “levels of Epstern-Barr Virus (EBV)” value (Epstern-Barr Virus (EBV)) was “reduces”. The “Virus production (HIV-1 p24 antigen capture assay)” value (HIV-1) was “completely blocked”, the “Activity, PRO” value (L major/L mexicana) was “+” and the “Activity, PRO” value (L donovani) was “+ +”.
